pIC50: −log10 of the molar value. Structures can show the parent of a compound that is named as a salt.
Tests used:
[1] = target: T1, αvβ3 protein (Homo sapiens, UniProt P05106+P06756); assay: αvβ3 protein binding test (fluorescence polarization, FITC-Echistatin); conditions: inhibition of binding of Echistatin and αvβ3 protein, 37° C., 30 minutes
T1 construct: purchased CHEMICON CORP; CC1019
Experimental: The method of Davis et al. (Proc. Natl. Acad. Sci., 96(16), 9269 (1999)) was partially modified and carried out.
By using Echistatin (available from SIGMA), Fluorescein Amine Labeling Kit for Peptides and Proteins (available from PanVera Corp., P2058) and Gel Filtration of Proteins Kit (P2101, PanVera Corp.), fluorescein isothiocyanate (hereinafter abbreviated to as FITC)-Echistatin was prepared. Then, with 137 μL of Tris-buffer (10 mM Tris base, 1 mM CaCl2, 1 mM MgCl2, 1 mM MnCl2, pH 7.4) were mixed 1 μL of 200 nM FITC-Echistatin (final concentration: 1 nM) and 2 μL of […] bovine serum albumin (hereinafter abbreviated to as BSA; available from SIGMA) (final concentration: 1 mg/mL). To the mixture was added 10 μL of the test compound, then, 50 μL of 4 nM αvβ3 (CC1019, available from CHEMICON CORP.) (final concentration: 1 nM) was added to the mixture and the resulting mixture was incubated at 37° C. for 30 minutes. By measuring fluorescence polarization degrees with BEACON2000 (available from PanVera Corp.), binding of Echistatin and αvβ3 protein was evaluated. The concentration (IC50 value) of the test compound necessary for inhibiting 50% of binding of Echistatin and αvβ3 protein was calculated by using EXSAS (available from Arm Systecs Co. Ltd.).

[2] = tested on: HUVEC (human umbilical vein endothelial cell), αvβ3 expressing cell; assay: αvβ3 expressing cell adhesion test (HUVEC on human vitronectin); format: cell-based; conditions: HUVEC binding to human vitronectin, 50% human serum-containing DMEM, 1 hour; read-out: αvβ3 developed cell adhesion inhibition IC50 value
Experimental: The method of Juliano, et al. (Exp. Cell Res., 225(1), 132 (1996)) was partially modified and carried out.
Human vitronectin (available from CHEMICON CORP.) was adjusted to 10 μg/mL with phosphate buffered saline (hereinafter abbreviated to as PBS). This was apportioned on a 96-well plate (MS9586F, available from SUMIRON Co., Ltd.) with 100 μL/well, subjected to coating at room temperature for 1 hour, then, the coating solution was removed and dried. Thereafter, blocking treatment was carried out by 1.0% BSA dissolved in Dulbecco's Modified Eagle's Medium (hereinafter abbreviated to as DMEM) for 1 hour, followed by washing with PBS, and the obtained material was used for the adhesion test as a coating plate. HUVEC (human umbilical vein endothelial cell) (available from Clonetics Corp.) cultured in an endocerial cell basal medium EBM2 (available from Clonetics Corp.) containing growth factor EGM2 (available from Clonetics Corp.) and 10% fatal bovin serum (hereinafter abbreviated to as FBS) was peeled by using trypsin-ethylenediamine tetraacetic acid, washed by using PBS and recovered, and then, suspended in 50% human serum-containing DMEM to prepare a cell solution of HUVEC. To human vitronectin coating plates was added a 50% human serum-containing DMEM solution containing the HUVEC cell solution and the test compound each 50 μL/plate to start the adhesion test. […]

[3] = target: T2, αvβ5 protein (Homo sapiens, UniProt P06756+P18084); assay: αvβ5 protein binding test (Biotin-Echistatin plate assay); conditions: inhibition of binding between Echistatin and αvβ5 protein
T2 construct: purchased CHEMICON Corp. CC1023
T2 sequence (P06756 31-889 limits assumed): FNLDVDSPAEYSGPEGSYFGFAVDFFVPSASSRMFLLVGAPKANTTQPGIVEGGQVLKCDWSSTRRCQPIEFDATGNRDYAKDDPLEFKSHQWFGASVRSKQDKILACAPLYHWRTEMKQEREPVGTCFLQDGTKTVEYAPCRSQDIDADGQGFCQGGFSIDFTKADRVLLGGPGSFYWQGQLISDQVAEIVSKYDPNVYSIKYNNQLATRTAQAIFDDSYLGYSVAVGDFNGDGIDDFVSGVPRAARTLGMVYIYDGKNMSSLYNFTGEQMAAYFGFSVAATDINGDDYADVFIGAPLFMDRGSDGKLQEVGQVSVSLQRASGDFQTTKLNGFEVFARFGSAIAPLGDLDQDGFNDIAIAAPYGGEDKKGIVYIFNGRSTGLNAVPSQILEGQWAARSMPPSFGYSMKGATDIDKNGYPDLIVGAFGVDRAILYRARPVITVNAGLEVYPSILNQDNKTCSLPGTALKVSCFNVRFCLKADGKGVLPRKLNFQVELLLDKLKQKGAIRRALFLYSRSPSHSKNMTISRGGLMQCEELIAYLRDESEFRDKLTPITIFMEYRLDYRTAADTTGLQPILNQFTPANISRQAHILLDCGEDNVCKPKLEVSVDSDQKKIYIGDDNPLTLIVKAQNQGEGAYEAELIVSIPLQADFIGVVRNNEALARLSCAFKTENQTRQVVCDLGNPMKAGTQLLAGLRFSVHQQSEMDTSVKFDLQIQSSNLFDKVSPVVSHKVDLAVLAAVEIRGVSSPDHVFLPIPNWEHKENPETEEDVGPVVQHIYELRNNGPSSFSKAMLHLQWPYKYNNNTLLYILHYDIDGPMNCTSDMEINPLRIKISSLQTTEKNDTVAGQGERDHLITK
T2 sequence (P06756 891-1048 partner limits assumed): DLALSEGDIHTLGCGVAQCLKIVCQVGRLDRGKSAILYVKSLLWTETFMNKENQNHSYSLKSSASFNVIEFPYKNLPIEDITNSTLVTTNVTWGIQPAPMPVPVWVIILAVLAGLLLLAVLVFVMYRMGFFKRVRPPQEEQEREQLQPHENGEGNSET
T2 sequence (P18084 24-799): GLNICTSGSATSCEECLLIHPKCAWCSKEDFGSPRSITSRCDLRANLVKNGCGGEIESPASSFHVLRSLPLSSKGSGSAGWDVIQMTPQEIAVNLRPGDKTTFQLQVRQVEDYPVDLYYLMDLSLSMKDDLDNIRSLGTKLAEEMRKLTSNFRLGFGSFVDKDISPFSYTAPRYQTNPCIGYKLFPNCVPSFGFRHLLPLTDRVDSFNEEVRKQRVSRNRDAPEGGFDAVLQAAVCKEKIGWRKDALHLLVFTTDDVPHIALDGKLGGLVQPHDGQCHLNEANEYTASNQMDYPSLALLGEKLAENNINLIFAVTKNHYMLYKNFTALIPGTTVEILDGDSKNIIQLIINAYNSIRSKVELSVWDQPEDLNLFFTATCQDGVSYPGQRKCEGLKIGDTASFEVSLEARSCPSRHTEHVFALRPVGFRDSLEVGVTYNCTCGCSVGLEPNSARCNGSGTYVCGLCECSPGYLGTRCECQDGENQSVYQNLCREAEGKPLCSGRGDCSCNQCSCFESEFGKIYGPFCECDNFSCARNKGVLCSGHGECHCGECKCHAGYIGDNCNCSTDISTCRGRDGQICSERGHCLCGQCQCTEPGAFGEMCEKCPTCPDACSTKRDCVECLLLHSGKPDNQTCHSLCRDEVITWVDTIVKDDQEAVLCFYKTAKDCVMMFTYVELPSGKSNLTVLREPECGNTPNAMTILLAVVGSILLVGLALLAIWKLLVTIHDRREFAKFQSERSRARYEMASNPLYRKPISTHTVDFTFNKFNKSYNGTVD
Experimental: The method of C. P. Carron et al. (J. Endocrinology, 165, 587 (2000)) was partially modified and carried out.
By using Echistatin (available from Bachem) and EZ-Link NHS-Biotin Reagent (available from Pierce Biotechnology Inc.), Biotin-Echistatin was prepared. Then, αvβ5 (CC1023, available from CHEMICON Corp.) was mixed with a Tris buffer solution (20 mM tris(hydroxymethyl)aminomethane, 150 mM NaCl, 1 mM CaCl2, 1 mM MgCl2, 1 mM MnCl2, pH 7.5), the mixture was added to Nunc immunoplate Maxisoap (available from Nalge Nunc Int. Co.), and incubated at room temperature overnight. The solution was removed, a Block Ace (available from Dai Nippon Sumitomo Pharma Co., Ltd.) solution was added to the residue and the mixture was incubated at room temperature for 2 hours, then, the solution was again removed and the residue was washed with 0.05% Tween-PBS. Next, a Tris buffer solution containing 10 mg/mL of bovine serum albumin (hereinafter abbreviated to as BSA; available from SIGMA) and the test compound was added to the mixture, and the resulting mixture was incubated at room temperature for 30 minutes. […] An absorbance at 495 nm was measured by Microplate reader (Spectra Fluor, available from TECAN Group, Ltd.) to evaluate binding of Echistatin and αvβ5 protein. […]

T1 sequence (P06756 31-889 limits assumed): as the sequence (P06756 31-889 limits assumed) above
T1 sequence (P06756 891-1048 partner limits assumed): as the sequence (P06756 891-1048 partner limits assumed) above
T1 sequence (P05106 27-788): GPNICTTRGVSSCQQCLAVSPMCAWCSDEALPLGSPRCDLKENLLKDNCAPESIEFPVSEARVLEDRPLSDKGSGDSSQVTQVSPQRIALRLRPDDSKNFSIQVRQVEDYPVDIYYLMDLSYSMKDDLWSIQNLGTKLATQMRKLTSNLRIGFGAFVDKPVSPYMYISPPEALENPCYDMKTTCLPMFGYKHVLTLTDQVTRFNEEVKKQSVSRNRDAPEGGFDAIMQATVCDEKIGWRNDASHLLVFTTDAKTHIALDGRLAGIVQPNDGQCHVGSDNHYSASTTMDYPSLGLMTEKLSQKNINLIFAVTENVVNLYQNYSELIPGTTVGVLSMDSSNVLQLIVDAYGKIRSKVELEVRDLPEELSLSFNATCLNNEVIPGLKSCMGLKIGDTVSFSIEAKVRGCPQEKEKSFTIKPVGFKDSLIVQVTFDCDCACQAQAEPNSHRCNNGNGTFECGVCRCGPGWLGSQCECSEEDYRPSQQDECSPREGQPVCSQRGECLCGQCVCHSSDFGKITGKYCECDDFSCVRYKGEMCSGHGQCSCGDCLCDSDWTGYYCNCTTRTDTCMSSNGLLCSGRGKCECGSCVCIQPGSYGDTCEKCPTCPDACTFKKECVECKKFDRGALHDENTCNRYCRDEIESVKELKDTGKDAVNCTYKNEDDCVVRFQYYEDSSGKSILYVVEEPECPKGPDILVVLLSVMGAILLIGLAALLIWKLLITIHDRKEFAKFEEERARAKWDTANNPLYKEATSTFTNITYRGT

Row | Compound | pIC50 [1] | pIC50 [2] | pIC50 [3]
1 | CNc1cccc(CCOc2ccc3c(c2)CN(CC(F)(F)F)C(=O)C(CC(=O)O)C3)n1 (racemic) [Compund A, 8-[2-[6-(methylamino)pyridin-2-yl]-1-ethoxy]-3-oxo-2-(2,2,2-trifluoroethyl)-2,3,4,5-tetrahydro-1H-2-benzazepin-4-acetic acid, reference compound] | 8.15 | 6.79 | 
2 | O=C(O)C[C@@H]1Cc2ccc(OCCCNc3ccccn3)cc2CN(CC(F)(F)F)C1=O [Compund B, (4S)-3-oxo-8-[3-(pyridin-2-ylamino)-1-propyloxy]-2-(2,2,2-trifluoroethyl)-2,3,4,5-tetrahydro-1H-2-benzazepin-4-acetic acid, reference compound] | 8.59 |  | 8.89
3 | O=C(O)CC1Cc2ccc(OCCc3cn4c(n3)NCCC4)cc2CN(CC(F)(F)F)C1=O (stereo not drawn) [Example 2, 3-oxo-8-[2-(5,6,7,8-tetrahydroimidazo[1,2-a]pyrimidin-2-yl)ethoxy]-2-(2,2,2-trifluoroethyl)-2,3,4,5-tetrahydro-1H-2-benzazepin-4-acetate trifluoroacetate] | 8.92 | 7.21 | 
4 | O=C(O)CC1Cc2ccc(OCCc3cn4c(n3)NCCN4)cc2CN(CC(F)(F)F)C1=O (stereo not drawn) [Example 3, 3-Oxo-8-[2-(1,2,3,4-tetrahydroimidazo[1,2-b][1,2,4]triazin-6-yl)ethoxy]-2-(2,2,2-trifluoroethyl)-2,3,4,5-tetrahydro-1H-2-benzazepin-4-acetate trifluoroacetate] | 8.89 |  | 
5 | O=C(O)C[C@@H]1Cc2ccc(OCCc3cn4c(n3)NCCC4)cc2CN(CC(F)(F)F)C1=O [Example 4, (4S)-3-oxo-8-[2-(5,6,7,8-tetrahydroimidazo[1,2-a]pyrimidin-2-yl)ethoxy]-2-(2,2,2-trifluoroethyl)-2,3,4,5-tetrahydro-1H-2-benzazepin-4-acetic acid] | 9.22 |  | 9.70

— patent US20120095215A1, “MEDICAL COMPOSITION FOR TREATMENT OR PROPHYLAXIS OF EYE DISEASES” (UBE INDUSTRIES, LTD., priority 2009, published 2012)
